From ChEMBL document CHEMBL1201862, “PubChem BioAssay data set” (2004)
The source made the active and inactive calls. Rule as the data show it: actives have a measured IC50 and inactives only a lower limit.

Tests used:
Assay type in all cases: functional
[1] = molecular target: T1, Sentrin-specific protease 8 (Homo sapiens, UniProt Q96LD8); test: SENP8 protease inhibitors, SAR follow-up, biochemical, luminescence (AID 504501)
T1 sequence (Q96LD8 whole entry): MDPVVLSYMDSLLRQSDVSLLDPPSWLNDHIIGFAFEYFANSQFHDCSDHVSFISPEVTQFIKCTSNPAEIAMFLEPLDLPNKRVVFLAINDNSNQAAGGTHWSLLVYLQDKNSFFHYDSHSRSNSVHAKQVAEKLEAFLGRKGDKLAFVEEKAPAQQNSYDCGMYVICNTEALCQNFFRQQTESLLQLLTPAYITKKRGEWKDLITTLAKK

Caspase-3 [2] = molecular target: T2, Caspase-3 (Homo sapiens, UniProt P42574); test: caspase-3 inhibitors as off-family protease, SAR follow-up, selectivity assay for SENP protease inhibitor project, biochemical, luminescence, set 2 (AID 588599)
T2 sequence (P42574 whole entry): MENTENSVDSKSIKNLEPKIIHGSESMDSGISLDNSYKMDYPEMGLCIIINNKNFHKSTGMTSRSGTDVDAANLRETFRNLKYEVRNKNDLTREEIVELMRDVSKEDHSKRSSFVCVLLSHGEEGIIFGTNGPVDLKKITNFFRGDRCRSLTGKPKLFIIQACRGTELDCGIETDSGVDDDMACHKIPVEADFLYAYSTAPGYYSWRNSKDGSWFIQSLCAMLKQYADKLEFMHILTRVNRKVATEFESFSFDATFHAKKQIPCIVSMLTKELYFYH

[3] = molecular target: T1, Sentrin-specific protease 8; test: SENP8 protease inhibitors, SAR follow-up, biochemical, luminescence, set 2 (AID 588601)
Caspase-3 [4] = molecular target: T2, Caspase-3; test: SAR Analysis of small molecule inhibitors of Sentrin-specific proteases (SENPs) using a Caspase-3 Selectivity assay. [Related pubchem assays (depositor defined):AID2540, AID2599, AID434973, AID489001]
[5] = molecular target: T3, Sentrin-specific protease 7 (Homo sapiens, UniProt Q9BQF6); test: SENP7 protease inhibitors, SAR follow-up, biochemical, luminescence, set 2 (AID 588600)
T3 sequence (Q9BQF6 whole entry): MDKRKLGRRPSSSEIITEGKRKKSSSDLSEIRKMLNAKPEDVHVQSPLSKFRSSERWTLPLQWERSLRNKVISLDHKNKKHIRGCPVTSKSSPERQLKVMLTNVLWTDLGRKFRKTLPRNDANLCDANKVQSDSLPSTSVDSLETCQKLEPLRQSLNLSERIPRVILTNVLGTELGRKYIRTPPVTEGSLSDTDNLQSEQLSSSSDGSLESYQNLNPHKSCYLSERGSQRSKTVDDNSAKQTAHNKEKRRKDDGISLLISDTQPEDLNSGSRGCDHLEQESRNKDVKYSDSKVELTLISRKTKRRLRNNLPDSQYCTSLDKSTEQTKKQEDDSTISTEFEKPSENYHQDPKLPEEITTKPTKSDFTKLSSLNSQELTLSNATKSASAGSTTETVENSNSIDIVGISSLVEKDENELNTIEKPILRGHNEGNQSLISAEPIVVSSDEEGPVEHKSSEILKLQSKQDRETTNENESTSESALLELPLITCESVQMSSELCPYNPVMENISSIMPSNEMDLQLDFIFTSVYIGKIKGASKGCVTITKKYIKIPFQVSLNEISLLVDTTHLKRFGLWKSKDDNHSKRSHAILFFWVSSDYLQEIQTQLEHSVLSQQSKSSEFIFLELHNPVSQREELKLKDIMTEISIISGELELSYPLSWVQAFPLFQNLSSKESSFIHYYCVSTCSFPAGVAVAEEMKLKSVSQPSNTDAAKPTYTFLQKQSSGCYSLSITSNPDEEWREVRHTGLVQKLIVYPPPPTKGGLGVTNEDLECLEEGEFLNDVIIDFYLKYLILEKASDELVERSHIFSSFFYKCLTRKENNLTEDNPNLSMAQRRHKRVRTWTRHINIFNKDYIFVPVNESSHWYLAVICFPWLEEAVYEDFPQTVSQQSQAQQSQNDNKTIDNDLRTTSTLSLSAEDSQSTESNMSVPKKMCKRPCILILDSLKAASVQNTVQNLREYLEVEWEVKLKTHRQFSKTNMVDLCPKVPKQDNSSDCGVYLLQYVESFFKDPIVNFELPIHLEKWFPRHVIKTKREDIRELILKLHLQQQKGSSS

[6] = molecular target: T4, Sentrin-specific protease 6 (Homo sapiens, UniProt Q9GZR1); test: SAR Analysis of small molecule inhibitors of Sentrin-specific protease 6 (SENP6) using a Luminescent assay. [Related pubchem assays (depositor defined):AID2582, AID2599]
T4 sequence (Q9GZR1 whole entry): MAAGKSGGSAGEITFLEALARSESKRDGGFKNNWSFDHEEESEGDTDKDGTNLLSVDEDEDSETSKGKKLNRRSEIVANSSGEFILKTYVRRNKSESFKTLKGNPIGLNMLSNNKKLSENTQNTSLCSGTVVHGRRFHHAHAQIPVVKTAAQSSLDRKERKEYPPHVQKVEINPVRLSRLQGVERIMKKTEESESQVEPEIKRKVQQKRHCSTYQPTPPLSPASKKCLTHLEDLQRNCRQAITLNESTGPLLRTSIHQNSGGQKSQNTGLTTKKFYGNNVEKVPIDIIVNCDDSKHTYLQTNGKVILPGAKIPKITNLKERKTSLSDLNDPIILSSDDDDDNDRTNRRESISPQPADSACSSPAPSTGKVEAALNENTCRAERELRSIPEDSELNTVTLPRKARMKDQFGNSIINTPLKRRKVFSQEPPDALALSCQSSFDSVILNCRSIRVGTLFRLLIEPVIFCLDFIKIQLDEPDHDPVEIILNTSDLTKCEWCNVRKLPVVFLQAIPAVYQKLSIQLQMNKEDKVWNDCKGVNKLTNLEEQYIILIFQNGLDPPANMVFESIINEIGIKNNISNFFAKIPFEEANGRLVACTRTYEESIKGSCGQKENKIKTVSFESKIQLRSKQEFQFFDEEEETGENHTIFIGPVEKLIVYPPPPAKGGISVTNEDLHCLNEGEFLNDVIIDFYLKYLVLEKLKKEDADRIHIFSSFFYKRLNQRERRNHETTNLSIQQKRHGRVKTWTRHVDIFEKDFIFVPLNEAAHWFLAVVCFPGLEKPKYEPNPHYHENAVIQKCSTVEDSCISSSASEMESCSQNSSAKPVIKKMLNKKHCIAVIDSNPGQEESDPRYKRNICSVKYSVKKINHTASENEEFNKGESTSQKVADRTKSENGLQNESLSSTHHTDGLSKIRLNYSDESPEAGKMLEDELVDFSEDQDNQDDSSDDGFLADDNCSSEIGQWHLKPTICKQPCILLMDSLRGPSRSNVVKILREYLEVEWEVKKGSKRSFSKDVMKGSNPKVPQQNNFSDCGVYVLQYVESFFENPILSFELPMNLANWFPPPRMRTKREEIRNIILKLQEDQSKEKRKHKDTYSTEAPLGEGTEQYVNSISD

[7] = molecular target: T4, Sentrin-specific protease 6; test: SENP6 protease inhibitors, SAR follow-up, biochemical, luminescence, set 2 (AID 588598)
[8] = molecular target: T3, Sentrin-specific protease 7; test: SENP7 protease inhibitors, SAR follow-up, biochemical, luminescence (AID 504497)

Measured: IC50

O=C(Nc1nc2ccc(Cl)cc2s1)c1ccco1
active: [1] 1.7 µM | Caspase-3 [2] 1.42 µM | [3] 1.08 µM | Caspase-3 [4] 1.5 µM | [5] 1.23 µM | [6] 1.4 µM | [7] 1.16 µM | [8] 1 µM
